In patent US20250215403A1, “Compositions and Methods for Cardiac Tissue Regeneration” (Temple University - Of The Commonwealth System Of Higher …, priority 2022, published 2025):

Experiments:
cardiomyocytes (CM) [1] = test: Mouse MI model: immunostaining of heart sections for CM cell cycle markers (ki67, pH3, BrdU, Aurora B); assay type: in vivo; conditions: SSP gene modRNA delivery; 7 days post-MI
Method: (§1) All surgical and experimental procedures with mice were performed in accordance with protocols approved by Institutional Animal Care and Use Committees at Temple University Animal Care and Use Committee (IACUC). C57BL6 or CM-specific MADM mice (8-12-weeks-old) were anesthetized with isoflurane. MI was induced by permanent ligation of the LAD, as previously described (Garikipati, V. N. S., et al., 2019, Nature Communications, 10:4317). Briefly, the left thoracic region was shaved and sterilized. After intubation, the heart was exposed through a left thoracotomy. A suture was placed to ligate the LAD. The thoracotomy and skin were sutured closed in layers. Excess air was removed from the thoracic cavity, and the mouse was removed from ventilation when normal breathing was established. In order to determine the effect of modRNA on cardiovascular outcome after MI, modRNAs (100 μg/heart) were injected into the infarct zone immediately after LAD ligation (Magadum A., et al., Circulation. 2020, 141 (15): 1249-1265). For examination of heart histology, hearts were collected at the end of each study, quickly washed in PBS, weighed, and fixed in 4% PFA for cryo-sectioning and immunostainings. In all experiments, the surgeon was blinded to the treatment group. For assessment of heart histology, hearts were collected at the end of each study. The hearts were excised, briefly washed in PBS, perfused with perfusion buffer, weighed and fixed in 4% PFA at 4° C. overnight. The heart blocks were transverse sectioned at 6-8 μm using cryostat. The heart sections were further processed for histological evaluation using immunostaining (see below) or histological scar staining using Masson's trichrome staining kit (Sigma) according to standard procedures. Measuring the ratio of heart weight to body weight was done using a scale. This ratio was calculated as the heart tissue weight relative to the mouse total body weight in grams (g).
Mice were injected with AAV9-GFP or AAV9-YAP1-shRNA (GeneCopoeia) through retro-orbital injection 7 days before LAD. A total of 5×10^11 viral genomes (50 μl total volume delivered) was injected per mouse. The level of YAP1 inhibition was determined at the mRNA level by qPCR 14 days post injection.
Mice hearts were harvested, weighed, and fixed in 4% PFA/PBS overnight on shaker and then washed with PBS for 1 hour and incubated in 30% sucrose/PBS at 4° C. for 12-18 hours. Hearts were then fixed in OCT and frozen at −80° C. (Magadum A., et al., Circulation. 2020, 141 (15): 1249-1265). Transverse heart sections (6-8 μm) were made using a cryostat. Frozen sections were rehydrated in PBS for 5-10 min followed by permeabilization with PBS with 0.1% Triton™ X100 (PBST) for 7-8 min. Heart sections were then treated with 3% H2O2 for 5 min and washed (3×5 min) with PBST. The samples were then blocked with PBS+10% Donkey normal serum+0.1% Triton™ X100 (PBSST) for 1 hour at room temperature. Primary antibodies (see complete list of primary antibodies used for this Example in Table 2 below) diluted in PBST were added and incubated overnight at 4° C. Slides were washed with PBST (3×5 min) followed by incubation with a secondary antibody (Invitrogen, 1:200) diluted in PBST for 90-120 min at room temperature. The samples were further washed with PBST (3×5 min) and stained with DAPI or Hoechst 33342 (1 μg/ml) diluted in PBST for 7 min. After being washed with PBST (3×7 min) and tap water (1×5 min) slides were mounted with mounting medium (VECTASHIELD®) for imaging (Magadum A., et al., Circulation. 2020, 141 (15): 1249-1265). Stained slides were stored at 4° C. All staining was performed on 4-8 hearts/group, with 2-3 sections/heart. For immunostaining with wheat germ agglutinin (WGA) for CM size quantification, images were captured at 40× magnification, and ImageJ was used to determine the area of each cell. […]

cardiomyocytes (CM) [2] = test: Mouse MI model: TUNEL staining of CM apoptosis; assay type: in vivo; conditions: SSP gene modRNA delivery; 7 days post-MI
Method: as §1
Mice hearts were harvested, weighed, and fixed in 4% PFA/PBS overnight on shaker and then washed with PBS for 1 hour and incubated in 30% sucrose/PBS at 4° C. for 12-18 hours. Hearts were then fixed in OCT and frozen at −80° C. (Magadum A., et al., Circulation. 2020, 141 (15): 1249-1265). Transverse heart sections (6-8 μm) were made using a cryostat. […] For immunostaining with wheat germ agglutinin (WGA) for CM size quantification, images were captured at 40× magnification, and ImageJ was used to determine the area of each cell. Quantitative analyses involved counting of multiple fields from 5-8 mouse hearts per group, and 3-4 sections/heart (˜50 cells per field assessed, for a total ˜250 cells per sample). […] BrdU positive CMs were counted in multiple fields from three independent samples per group and 3 sections/heart. […]

Molecule: PHGDH: modRNA encoding phosphoglycerate dehydrogenase (ORF SEQ ID NO: 6)
- CM cell cycle (pH3+ CMs) (cardiomyocytes (CM) [1]): partially induced
- CM apoptosis (TUNEL+ CMs) (cardiomyocytes (CM) [2]): inhibited

B1: PSPH: modRNA encoding phosphoserine phosphatase (ORF SEQ ID NO: 5) (nucleic acid)
DNA: ATGGTCTCCCACTCAGAGCTGAGGAAGCTCTTCTGTTCAGCGGATGCAGTGTGCTTTGATGTTGATAGCACCGTCATCAGAGAAGAAGGAATCGATGAGCTGGCCAAATTCTGTGGTGTGGAGGCCGCAGTGTCTGAAATGACACGGAGAGCCATGGGAGGAGCATTGCCTTTTAAAGACGCGCTCACTCAGCGCCTGGCACTGATCCAGCCCTCCAGGGATCAAGTCCAGAGGCTCCTAGCTGAGCACCCGCCACATCTGACTCCTGGCATAAGGGAGCTGGTAAGCCGCCTCCAGGAGCGTAATGTCCAGGTGTTCCTCATCTCTGGTGGCTTTCGGAGCATTGTGGAGCACGTTGCTGCAAAGCTCAATATCCCAACAACCAATGTGTTTGCCAATAGGCTGAAGTTCTACTTTAATGGTGAGTACGCAGGTTTTGATGAGATGCAGCCGACAGCCGAGTCGGGTGGGAAAGGAAAGGTTATTCGGTTTTTAAAGGAAAAATTTCACTTTAAGAAAATAATCATGATTGGAGATGGAGCTACGGACATGGAAGCCTGTCCTCCTGCTGATGCTTTCATTGGCTTTGGAGGCAATGTGATCAGGCAGCAGGTTAAGGACAACGCCAAGTGGTACATCACTGACTTCGTGGAGCTGCTGGGAGAACTGGAGGAGTGA
modifications: modRNA
- CM cell cycle (pH3+ CMs) (cardiomyocytes (CM) [1]): partially induced
- CM apoptosis (TUNEL+ CMs) (cardiomyocytes (CM) [2]): inhibited
